Laboratory results taken from article PMC5059567 (International Journal of Endocrinology, 2016).
pKi: −log10 of the molar value.

Columns and labels:
ATC = ATC patients; cited from earlier work
patients affected by ATC [1] = experiment: Safety/toxicity in the trial (Common Toxicity Criteria, serum biochemistry); format: in vivo, human; conditions: ATC patients enrolled in the study
Procedure: Hemogram, serum biochemistry, and electrolyte levels were measured before each chemotherapy cycle and when clinically indicated; toxicity was evaluated according to the Common Toxicity Criteria (CTC). […] In the presence of Grade 4 toxicity or in case of severe allergic reaction, treatment was definitively stopped.

[2] = Pharmacokinetics of TAX in plasma (noncompartmental, HPLC-UV); format: in vivo, human
Procedure: Blood samples were centrifuged immediately for 10 min at 1,000 ×g at room temperature and the resulting plasma was frozen and stored at −80°C until analysis.
Briefly, a volume of 200 μL of acetonitrile, 300 μL of deionized water, and 5 mL of tertbutylmethylether was added to 100 μL of plasma samples in borosilicate glass tubes. The mixture was vortexed for 30 sec and centrifuged at 2,500 ×g for 15 min. Upon centrifugation, 3 mL of the organic layer was transferred to a clean glass tube and evaporated to dryness under nitrogen. The residue was then reconstituted with 200 μL of 60% acetonitrile in deionized water and mixed on a vortex mixer for 90 sec; then 100 μL of the reconstituted sample was injected into the HPLC system equipped with a Symmetry C18 column (250 × 4.6 mm i.d., particle size 5 μm) and a Symmetry C18 guard column supplied by Waters (Vimodrone, Milan, Italy). Chromatographic analysis was performed at room temperature (20 ± 2°C) by isocratic elution with a mobile phase consisting in a mixture of acetonitrile—0.1% phosphoric acid in deionized water (60 : 40, v/v) (Milli-Q Plus System, Millipore, Milford, MA, USA) at a flow-rate of 1.0 mL/min.
The Mann–Whitney nonparametric test was used to compare pharmacokinetic values of the two different groups of patients; statistical evaluation was performed using Instat 3.05 software (Graphpad, San Diego, USA).

patients affected by ATC [3] = experiment: Randomized phase II/III trial: overall survival and progression-free survival; format: in vivo, human; conditions: TAX 80 mg/m^2 weekly i.v. with or without VPA 1,000 mg/day p.o.
Procedure: The diagnosis was obtained by cytological examination of specimens following fine-needle aspiration and was confirmed by histologic examination in all patients who underwent surgery. Examination was performed by two different pathologists with proven experience in thyroid cancer. Inclusion criteria were (a) patients with radiologically or clinically confirmed disease progression during or after multimodal therapy (surgery, if performed, first-line systemic chemotherapy with doxorubicin and cisplatin, and external beam radiation (EBR)); (b) patients not eligible for surgery or EBR because of tumor local invasion or severe comorbidities. […] Patients or their legal representatives needed to be able to read, understand, and provide written informed consent to participate in the trial, according to the Declaration of Helsinki.
In the absence of disease progression, patients of both groups were treated up to 18 chemotherapy cycles. Primary outcomes were (1) overall survival and (2) disease progression, evaluated in terms of progression-free survival (PFS). The extent of thyroid neoplasia and secondary lesions were assessed at the beginning of treatment by computer tomography (CT) scans of head, neck, chest, and abdomen. Local recurrence or lymph node metastases were evaluated also by high definition neck ultrasonography (US). […]

Serum levels of VPA = format: in vivo, human; conditions: oral 1,000 mg valproate daily, after two weeks of treatment; range 50–72
Procedure: Drug measurement was performed using the Dimension Vista System (Siemens, Healthcare, Erlangen, Germany). The therapeutic range was […].

CYP3A4 = conditions: preclinical in vitro; read-out: Ki (CYP3A4 inhibition); cited from earlier work
ATC cell lines = conditions: combination with TAX; cited from earlier work
P-gp = conditions: preclinical in vitro and in vivo experiments; cited from earlier work
[4] = human, intravenous, 80 mg/m^2, plasma, first chemotherapy cycle, 10 patients per group

COc1ccc(C[C@@H](O)c2cc(OC)c(OC)c(OC)c2)cc1O [combretastatin]
median survival reported in clinical trials (ATC): 5.2 months

CC(=O)O[C@H]1C(=O)[C@@]2(C)[C@H]([C@H](OC(=O)c3ccccc3)[C@]3(O)C[C@H](OC(=O)[C@H](O)[C@@H](NC(=O)c4ccccc4)c4ccccc4)C(C)=C1C3(C)C)[C@]1(OC(C)=O)CO[C@@H]1C[C@@H]2O [TAX, paclitaxel]
severe adverse effect (patients affected by ATC [1]): No severe adverse effect | Cmax [2, 4]: 1160 ng/mL | Vd [2, 4]: 52.1 L | clearance [2, 4]: 664 mL/min | half-life [2, 4]: 2.03 h | k el [2, 4]: 9.44e-05 s⁻¹ | Median survival (patients affected by ATC [3]; Kaplan-Meier from enrollment, P = 0.9): 148 days | Median time to progression (patients affected by ATC [3]; P = 0.6): 51 days

CCCC(CCC)C(=O)O [VPA, valproic acid]
valproate blood levels (Serum levels of VPA): 67 µg/mL | influence of coadministration on the pharmacokinetics of TAX ([2]; VPA 1,000 mg/day coadministered, Mann–Whitney test): […] | pKi (CYP3A4): […] | VPA dose at which enhancement of TAX cytostatic and cytotoxic activity was reached (ATC cell lines): 0.7 mM | P-gp expression (P-gp): induce the overexpression

Cc1ccc(Nc2nccc(N(C)c3ccc4c(C)n(C)nc4c3)n2)cc1S(N)(=O)=O [pazopanib]
median survival reported in clinical trials (ATC): 111 days

CNC(=O)c1cc(Oc2ccc(NC(=O)Nc3ccc(Cl)c(C(F)(F)F)c3)cc2)ccn1 [sorafenib]
median survival reported in clinical trials (ATC): 3.9 months
